In paper PMC7822874, “Chemoprotective antimalarials identified through quantitative high-throughput screening of Plasmodium blood and liver stage parasites” (Scientific Reports, 2021):
Where “and” joins values, the source holds several entries; their conditions need not be identical. Identical values can stand only once. Like-named read-outs stand apart in the source and are kept apart here.

Tests used:
[1] = system: P. falciparum Dd2 Cytb A122D; assay: SYBR Green ABS proliferation assay, NCGC00473217 selected clone F12; type: cell-based, Plasmodium falciparum; parameters: log AC50, mean: unit: Log[M]; details: fourth value triple, c12, […]; for AC50: Plasmodium falciparum, DD2, cytochrome b mutant line, read-out: log AC50, mean (converted); for log AC50, mean: cytochrome b mutant line
Outline: (§1)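 Drug-selected P. falciparum Dd2 clones carrying Cytb mutations, obtained by limiting-dilution cloning, grown in RBCs at 37 °C under 5% CO2/5% O2/90% N2. Growth read by SYBR Green-I fluorescence at 72 h and normalized to controls.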

[2] = system: P. falciparum Dd2 Cytb V259L; assay: SYBR Green ABS proliferation assay, NCGC00473217 selected clone F06; type: cell-based, Plasmodium falciparum; parameters: log AC50, mean: unit: log M; details: third value triple, c9, […]; for AC50: Plasmodium falciparum, DD2, cytochrome b mutant line, read-out: log AC50, mean (converted); for log AC50, mean: cytochrome b mutant line
Outline: as §1

[3] = system: Plasmodium falciparum Dd2 asexual blood stage parasites; assay: microbe, parasite or virus in culture; parameters: species or system Plasmodium falciparum Dd2 in human erythrocytes; single determination (one 11-point concentration-response curve); details: Plasmodium falciparum, DD2, Erythrocyte, 72 h; read-out: AC50
[4] = system: P. falciparum Dd2 Cytb G131S; assay: SYBR Green ABS proliferation assay, NCGC00374598 selected clone C11; type: cell-based, Plasmodium falciparum; details: second value triple, c6, […]; for AC50: Plasmodium falciparum, DD2, cytochrome b mutant line, read-out: log AC50, mean (converted); for log AC50, mean: cytochrome b mutant line
Outline: as §1

[5] = system: P. falciparum Dd2 Cytb F123L; assay: SYBR Green ABS proliferation assay, NCGC00473217 selected clone G08; type: cell-based, Plasmodium falciparum; parameters: log AC50, mean: unit: log10(M); details: fifth value triple, c15, […]; for AC50: Plasmodium falciparum, DD2, cytochrome b mutant line, read-out: log AC50, mean (converted); for log AC50, mean: cytochrome b mutant line
Outline: as §1

[6] = system: luciferase-expressing P. berghei liver stage parasites in HepG2 cells; assay: Inhibition of liver-stage development assay (ILSDA), Method 2 (WRAIR, 96-well); type: cell-based, Plasmodium berghei; details: Method 2, dose response; for Activity direction (Decrease / Inactive): P. berghei liver stage; for AC50: Plasmodium berghei, HepG2, P. berghei liver stage
[7] = system: T1, Plasmodium falciparum Dd2-attB-ScDHODH (transgenic line expressing yeast DHODH), asexual blood stages; assay: organism not typed; parameters: replicate k of 3 (each line is one of three independent assays; the three lines of one compound and parasite line follow each other); details: 72 h, n = 1
T1 construct: Dd2-attB-ScDHODH, the transgenic line that expresses yeast DHODH
Outline: (§2)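 Both lines were tested side by side with selected compounds, repeated in three independent assays. Differences between parental and ScDHODH-expressing parasites were then assessed with a two-sided Student's t-test.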

[8] = system: T2, Plasmodium falciparum Dd2-attB (parental line), asexual blood stages; assay: microbe, parasite or virus in culture; parameters: replicate k of 3 (each line is one of three independent assays; the three lines of one compound and parasite line follow each other); details: n = 1; for Individual replicates / Log AC50 (M): 72 h; for AC50: Plasmodium falciparum, DD2, 72 h, read-out: Individual replicates / Log AC50 (converted)
T2 construct: Dd2-attB, the isogenic parental line
Outline: as §2

SMILES | AC50 [1] | AC50 [2] | AC50 [3] | AC50 [4] | AC50 [5] | Activity direction (Decrease / Inactive) [6] | log AC50, mean [1] | Individual replicates / Log AC50 (M) [7] | Individual replicates / Log AC50 (M) [8] | AC50 [8] | log AC50, mean [2] | log AC50, mean [4] | log AC50, mean [5] | AC50 ([6]; read-out: AC50) | AC50 ([6]; read-out: Log AC50 (converted))
CC(C)c1nc2c(c(-c3ccc(O)cc3)n1)CCN(Cc1ccc(C(F)(F)F)cc1)CC2 [NCGC00480320-01] | 4.91 µM | 4.73 µM | 5.31 µM | 3.76 µM | 4.55 µM | – | – | – | – | – | – | – | – | – | –
CC(C)c1nc2c(c(-c3ccc(O)cc3)n1)CCN(Cc1cccc3ccccc13)CC2 [NCGC00480323-01] | 4.73 µM | 4.55 µM | – | 4.06 µM | 4.22 µM | Inactive | – | – | – | – | – | – | – | – | –
CC(C)c1nc2c(c(-c3ccc(O)cc3)n1)CCN(Cc1ccccc1C(F)(F)F)CC2 [NCGC00480324-01] | 4.55 µM | 4.73 µM | 4.73 µM | 4.06 µM | 4.22 µM | – | – | – | – | – | – | – | – | – | –
CC(C)c1nc2c(c(-c3ccc(O)cc3)n1)CCN(Cc1ccc(OC(F)(F)F)cc1)CC2 [NCGC00480325-01] | 6.43 µM | 8.73 µM | 2.99 µM | 5.31 µM | 6.68 µM | – | – | – | – | – | – | – | – | – | –
Cc1ccc(CN2CCc3nc(C4CC4)nc(-c4ccc(O)cc4)c3CC2)cc1 [NCGC00480348-01] | 7.78 µM | 6.93 µM | 4.73 µM | 7.21 µM | 6.68 µM | – | – | – | – | – | – | – | – | – | –
Oc1ccc(-c2nc(C3CC3)nc3c2CCN(Cc2ccc(F)cc2)CC3)cc1 [NCGC00480352-01] | – | 7.5 µM | – | 7.78 µM | 6.93 µM | – | -4.975 | -5.1486 Log AC50 (M) (2×) and -5.1986 Log AC50 (M) | -5.2986 Log AC50 (M) and -5.2486 Log AC50 (M) | 5.64 µM | – | – | – | – | –
O=C(O)C(F)(F)F.Oc1ccc(-c2nc(C3CC3)nc3c2CCN(Cc2ccc(F)cc2)CC3)cc1 [NCGC00480352-02] | – | – | – | – | – | – | -5.349 | -5.0486 Log AC50 (M) (2×) and -4.8486 Log AC50 (M) | -4.9986 Log AC50 (M) and -5.0986 Log AC50 (M) (2×) | – | -5.399 | -5.315 | -5.432 | – | –
Oc1ccc(-c2nc(C3CC3)nc3c2CCN(CC2CCCCC2)CC3)cc1 [NCGC00480361-01] | – | – | 4.73 µM | 6.43 µM | – | Inactive | -5.009 | -5.2486 Log AC50 (M) and -5.1486 Log AC50 (M) | -5.4486 Log AC50 (M) and -5.3986 Log AC50 (M) | 4.48 µM | -5.075 | – | -5.309 | – | –
O=C(O)C(F)(F)F.Oc1ccc(-c2nc(C3CC3)nc3c2CCN(CC2CCCCC2)CC3)cc1 [NCGC00480361-02] | – | – | – | – | – | – | -5.499 | -5.0486 Log AC50 (M) and -5.1986 Log AC50 (M) | -5.2486 Log AC50 (M) | – | -5.515 | -5.282 | -6.465 | – | –
CCCN1C(c2ccccc2)=NS(=O)(=O)c2cc(NC(=O)c3ccc(F)cc3)ccc21 [NCGC00532331-01] | 1.85 µM | 2.33 µM | – | 0.71 µM | 3.3 µM | Decrease | – | – | – | – | – | – | – | 17.8 µM | 17.8 µM
CCCN1C(c2ccccc2)=NS(=O)(=O)c2cc(NC(=O)c3cccs3)ccc21 [NCGC00532332-01] | 1.53 µM | 4.32 µM | – | 0.861 µM | 2 µM | Decrease | – | – | – | – | – | – | – | 0.035 µM | 0.0355 µM
